Publication PMC8262356, “SLC26A6-selective inhibitor identified in a small-molecule screen blocks fluid absorption in small intestine” (JCI Insight, 2021)
Where “and” joins values, the source holds several entries; their conditions need not be identical. Identical values can stand only once.

Target: T1, PAT1 (murine slc26a6) (Mus musculus, UniProt Q8CIW6)
T1 construct: host or cells: Fischer rat thyroid (FRT) cells, lentiviral transduction (pLVX-IRES-mCherry-slc26a6), clonal line FRT-YFP-slc26a6
T1 sequence (Q8CIW6 24-758 limits assumed): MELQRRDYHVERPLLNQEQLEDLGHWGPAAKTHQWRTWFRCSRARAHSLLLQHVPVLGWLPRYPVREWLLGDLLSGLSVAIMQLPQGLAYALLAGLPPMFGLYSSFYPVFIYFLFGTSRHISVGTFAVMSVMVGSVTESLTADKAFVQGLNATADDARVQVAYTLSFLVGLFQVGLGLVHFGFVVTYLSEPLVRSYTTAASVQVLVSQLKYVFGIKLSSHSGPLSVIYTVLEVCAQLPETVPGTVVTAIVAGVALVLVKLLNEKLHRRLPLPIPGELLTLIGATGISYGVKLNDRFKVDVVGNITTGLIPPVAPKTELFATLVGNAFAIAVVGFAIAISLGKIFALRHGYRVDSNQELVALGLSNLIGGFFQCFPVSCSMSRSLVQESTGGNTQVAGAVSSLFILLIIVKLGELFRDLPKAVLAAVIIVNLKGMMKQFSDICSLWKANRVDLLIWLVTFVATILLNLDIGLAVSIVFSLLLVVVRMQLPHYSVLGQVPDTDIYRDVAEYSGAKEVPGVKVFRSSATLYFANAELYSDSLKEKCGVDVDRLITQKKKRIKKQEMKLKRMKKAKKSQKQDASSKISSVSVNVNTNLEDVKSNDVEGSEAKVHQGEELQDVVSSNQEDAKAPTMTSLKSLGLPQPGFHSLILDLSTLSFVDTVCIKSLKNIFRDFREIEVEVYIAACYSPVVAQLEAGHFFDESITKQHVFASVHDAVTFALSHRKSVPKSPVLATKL
Assay: PAT1-mediated Cl-/I- exchange, YFP fluorescence quenching in FRT cells
Format: cell-based
Description: A small-molecule screen was developed to identify PAT1 inhibitors utilizing transfected FRT cells expressing PAT1 (murine slc26a6) together with a halide-sensing cytoplasmic YFP (Figure 1A). Adherent cells in a 96-well format were subjected to an inward gradient of I^– to drive exchange of I^– for Cl^– and consequent quenching of the YFP fluorescence signal.
A collection of approximately 50,000 diverse, drug-like synthetic small molecules (ChemDiv) was screened at a concentration of 25 μM using a Beckman Coulter BioMek FX liquid handling platform with FLUOstar OMEGA plate readers (BMG Labtech). FRT-YFP-slc26a6 cells were plated in 96-well black-walled, clear-bottom plates (Corning Life Sciences) at a density of 20,000 cells/well and cultured for 48 hours until confluent. Cells were washed twice in PBS and incubated for 10 minutes prior to assay in 100 μl PBS containing test compounds. For assay of slc26a6 function, baseline cellular fluorescence was measured for 2 seconds, after which 100 μl NaI-substituted PBS (140 mM NaCl replaced by 140 mM NaI) was added by syringe pump to drive Cl^–/I^– exchange. The initial rate of Cl^–/I^– exchange was determined by single exponential regression of the fluorescence time course. All assay plates contained wells with negative (1% DMSO) and positive (500 μM niflumic acid) controls. For structure-activity relationship studies, analogs of active compounds were purchased from ChemDiv.

- time to 50% inhibition of PAT1-mediated Cl-/I- exchange (1 μM): approximately 3 minutes
- IC50 (FRT cells expressing PAT1 and YFP, read-out: IC50, inhibition of PAT1-mediated Cl-/I- exchange): ~350 nM and 350 nM
- inhibition at 25 µM (FRT, 25 μM, primary screen): > 75%
- reversibility of inhibition following washout (data not shown): fully reversible
SMILES: Cc1c(Br)c(C(F)(F)F)nn1CC(=O)N1CCc2nc3cc(-c4ccccc4)[nH]n3c(=O)c2C1 [PAT1inh-B01]
